This note sets out measurements from US20230114728A1 (Venatorx Pharmaceuticals, Inc., priority 2019, published 2023).

≈ marks a conversion by molar mass, not a printed value. Bounds are passed on as bounds.

One assay relates to N. gonorrhoeae WHO Q. The assay is described as follows: Liquid broth MIC in Fastidious broth. In kind it is cell-based. To be noted: Neisseria gonorrhoeae, read-out: Minimum Inhibitory Concentration, N. gonorrhoeae WHO Q. The method in brief:
(§1)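 MIC = lowest concentration giving <10% growth relative to untreated wells, scored by eye after ~24 h at 36 °C, 5% CO2. Strains carry mosaic PBP2; inoculum 5×10^5 CFU/mL in Fastidious broth with 2-fold serial compound dilutions.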

A further assay deals with N. gonorrhoeae WHO Z. The assay is described as follows: Liquid broth MIC in Fastidious broth. Format: cell-based. To be noted: Neisseria gonorrhoeae, read-out: Minimum Inhibitory Concentration, N. gonorrhoeae WHO Z. The essentials: as §1
The nature of assay [1]: Bocillin-FL fluorescence polarization competition binding assay, A. baumannii PBP3. To be noted: fluorescence polarization competition binding assay using Bocillin-FL; column 3; read-out: 4. baumannii PBP1a Potency. The method in brief:
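Fluorescence polarization (ex 490/em 520 nm) competition of inhibitors against Bocillin-FL at 0.1 μM, read up to 60 min. Final PBP levels: E. coli PBP3 1.5 μM; A. baumannii PBP2 2.5 μM, PBP3 0.2 μM in Tris pH 8.0/NaCl/glycerol/Tween 20; N. gonorrhoeae PBP2 […] in Hepes pH 8.0/NaCl/glycerol. EC50 = concentration halving PBP-bound Bocillin-FL.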
A general note: Polarisation of emitted light reports the rotation of a fluorescent probe.

Another assay concerns the target T1, N. gonorrhoeae PBP2 (Neisseria gonorrhoeae, UniProt P08149).
T1 construct: made in house
As to the kind of experiment: Bocillin-FL fluorescence polarization competition binding assay, N. gonorrhoeae PBP2. To be noted: fluorescence polarization competition binding assay using Bocillin-FL; read-out: N. gonorrhoeae PBP2 Potency. From the text: Example I: Experimental Method for Penicillin-Binding Protein Binding Assays with Bocillin-FL Via Fluorescence Polarization
To determine the ability of boronic acid-based test PBP inhibitors to bind Penicillin Binding Proteins (PBPs), Bocillin-FL (fluorescently-labeled penicillin V; ThermoFisher Scientific) was used in a fluorescence polarization (FP) competition binding assay to assess inhibitor binding to PBP2, PBP3 or PBP4 from Escherichia coli (K12), PBP3 from Pseudomonas aeruginosa (PA01), PBP1a, PBP2 and PBP3 from Acinetobacter baumannii (ATCC 19606), and PBP2 from Neiserria gonorrheae (FA19). PBPs were cloned and purified as described previously (E. coli PBPs, King, D. T, et al., ACS Infectious Diseases 2015, 1, 175-184; P. aeruginosa PBP3, Han et. al., PNAS 2010, 107 (51), 22002-22007; A. baumannii PBPs, Penwell et. al., Antimicrob. Agents Chemother. 2015, 59 (3), 1680-1689; N. gonorrhoeae PBP2, Singh et. al., J Biol. Chem. 2019, 294 (38), 14020-14032). To establish assay conditions for competition binding, enzyme titration/saturation binding experiments were initially performed. Bocillin-FL was prepared at 0.2 μM in a buffer comprised of 50 mM Hepes (pH 8.0), 300 mM NaCl and 5% (v/v) glycerol for reactions with E. coli, P. aeruginosa and N. gonorrhoeae PBPs, and 25 mM Tris (pH 8.0), 200 mM NaCl and 10% (v/v) glycerol and 0.005% (v/v) Tween 20 for reactions with A. baumannii PBPs. Saturation binding was performed by mixing 40 μl of PBP solutions ranging in concentrations from 0-24 μM with 40 μl of the 0.2 μM Bocillin-FL solution, in individual wells of a black 384-well microplate. FP was measured immediately upon mixing (Excitation, 490 nm; Emission, 520 nm; g-factor, 0.96), using a Cytation3 (BioTek) microplate reader and measured continuously for up to 120 minutes. […] The competition binding assay (80 μl final volume) was validated using beta-lactams and PBPs at final concentrations of: 1.5 μM, E. coli PBP3; 0.75 μM, P. aeruginosa PBP3; 1 μM A. baumannii PBP1a; 2.5 μM A. baumannii PBP2; 0.2 μM A. baumannii PBP3; and […] N. gonorrhoeae PBP2. Bocillin-FL was at 0.1 μM (0.05 μM with A. baumannii PBP1a) and beta-lactam concentrations ranged from 0-1000 μM. […] Bocillin-FL was added and the FP immediately measured for up to 60 minutes (90 minutes for E. coli PBP2). […] The beta-lactam potency was reported as the concentration of beta-lactam required to reduce the amount of PBP bound-Bocillin-FL by 50% (EC50). […] Binding assays for boronic acid PBP inhibitors were performed in an identical fashion for the respective PBPs

The next assay concerns the target T2, P. aeruginosa PBP3 (Pseudomonas aeruginosa, UniProt G3XD46).
T2 construct: made in house
The assay is described as follows: Bocillin-FL fluorescence polarization competition binding assay, P. aeruginosa PBP3. To be noted: fluorescence polarization competition binding assay using Bocillin-FL. The essentials:
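Binding of boronic acid inhibitors to purified Pseudomonas aeruginosa (PA01) PBP3 was measured by fluorescence polarization competition with Bocillin-FL, a fluorescent penicillin V. Reactions of 80 μl contained 0.75 μM PBP3 and 0.1 μM Bocillin-FL in 50 mM Hepes (pH 8.0), 300 mM NaCl and 5% (v/v) glycerol, in black 384-well plates. FP (Excitation 490 nm, Emission 520 nm) was read for up to 60 minutes. EC50 is the concentration that halves PBP-bound Bocillin-FL.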

T1 sequence (P08149 whole entry): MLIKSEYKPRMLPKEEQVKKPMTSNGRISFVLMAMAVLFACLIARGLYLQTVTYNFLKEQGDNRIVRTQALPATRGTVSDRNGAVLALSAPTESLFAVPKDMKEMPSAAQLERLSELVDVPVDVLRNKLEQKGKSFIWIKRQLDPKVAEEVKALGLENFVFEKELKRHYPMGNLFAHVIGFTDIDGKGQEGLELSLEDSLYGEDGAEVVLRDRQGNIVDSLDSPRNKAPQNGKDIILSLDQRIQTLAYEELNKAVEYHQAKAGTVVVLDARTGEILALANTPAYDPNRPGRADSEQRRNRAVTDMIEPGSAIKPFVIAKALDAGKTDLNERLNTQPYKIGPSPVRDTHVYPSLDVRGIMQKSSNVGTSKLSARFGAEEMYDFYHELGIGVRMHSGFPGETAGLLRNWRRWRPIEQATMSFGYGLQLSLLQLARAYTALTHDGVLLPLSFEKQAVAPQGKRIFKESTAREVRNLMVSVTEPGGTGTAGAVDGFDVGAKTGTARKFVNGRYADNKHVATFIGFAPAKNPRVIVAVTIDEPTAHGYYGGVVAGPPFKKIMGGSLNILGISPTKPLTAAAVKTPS
T2 sequence (G3XD46 whole entry): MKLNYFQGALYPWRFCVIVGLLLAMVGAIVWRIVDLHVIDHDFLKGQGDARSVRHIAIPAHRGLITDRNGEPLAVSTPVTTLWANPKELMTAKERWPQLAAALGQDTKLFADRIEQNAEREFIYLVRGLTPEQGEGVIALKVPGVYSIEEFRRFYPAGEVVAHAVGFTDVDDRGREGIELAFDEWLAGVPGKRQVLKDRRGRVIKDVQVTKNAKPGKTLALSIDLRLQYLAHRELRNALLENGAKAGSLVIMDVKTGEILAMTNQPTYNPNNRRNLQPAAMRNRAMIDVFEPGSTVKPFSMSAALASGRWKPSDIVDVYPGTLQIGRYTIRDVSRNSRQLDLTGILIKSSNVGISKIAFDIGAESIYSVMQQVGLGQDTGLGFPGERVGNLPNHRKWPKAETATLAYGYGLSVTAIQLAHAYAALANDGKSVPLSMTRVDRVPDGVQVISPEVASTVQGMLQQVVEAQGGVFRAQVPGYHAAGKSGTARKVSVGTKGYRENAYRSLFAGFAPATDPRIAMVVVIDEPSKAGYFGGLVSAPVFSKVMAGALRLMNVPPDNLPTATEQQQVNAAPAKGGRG

Regarding `NCCN1CCN(C(=O)N[C@@H](C(=O)N[C@H]2Cc3cccc(C(=O)O)c3OB2O)c2ccc(C(=O)O)cc2)C(=O)C1=O` (single isomer, unassigned) [Example 84], the MIC in the assay with N. gonorrhoeae WHO Q and with N. gonorrhoeae WHO Z was 16 to 32 µg/mL (≈ 28.2 to 56.4 µM) throughout. Also, the EC50 in assay [1] was 30 to 100 µM; at N. gonorrhoeae PBP2 it was less than 10 µM. For the same compound, at P. aeruginosa PBP3, the “P. aeruginosa PBP3 Potency” value is on record as “D (D represents a potency <10 μM)”.
For the compound `NCCN1CCN(C(=O)N[C@H](C(=O)N[C@H]2Cc3cccc(C(=O)O)c3OB2O)c2ccc(O)cc2Cl)C(=O)C1=O` (single isomer, unassigned) [Example 85], the MIC with N. gonorrhoeae WHO Q and in the assay with N. gonorrhoeae WHO Z was more than 64 µg/mL each time. For the same compound, the EC50 in assay [1] is more than 100 µM; on N. gonorrhoeae PBP2 it was 10 to 30 µM. The “P. aeruginosa PBP3 Potency” value at P. aeruginosa PBP3 was “C (C represents a potency between 10 and 30 μM)”.
With `CCN1CCN(C(=O)NC(C(=O)N[C@H]2Cc3cccc(C(=O)O)c3OB2O)c2ccc(C(=O)O)c(F)c2)C(=O)C1=O` (stereo partly drawn) [Example 31, (3R)-3-(2-(4-carboxy-3-fluorophenyl)-2-(4-ethyl-2,3-dioxopiperazine-1-carboxamido)acetamido)-2-hydroxy-3,4-dihydro-2H-benzo[e][1,2]oxaborinine-8-carboxylic acid], the MIC with N. gonorrhoeae WHO Z lay in the range of 1 to 2 µg/mL (≈ 1.75 to 3.51 µM). Further, the EC50 (in assay [1]; at N. gonorrhoeae PBP2) was less than 10 µM throughout. The “P. aeruginosa PBP3 Potency” value at P. aeruginosa PBP3 is recorded as “D (D represents a potency <10 μM)”.
As for `CC(C)(C)[C@@H](NC(=O)N1CCN(CCNC(=O)c2c(F)cc(O)c(O)c2Cl)C(=O)C1=O)C(=O)N[C@H]1Cc2ccc(F)c(C(=O)O)c2OB1O` [Example 80, (R)-3-((R)-2-(4-(2-(2-chloro-6-fluoro-3,4-dihydroxybenzamido)ethyl)-2,3-dioxopiperazine-1-carboxamido)-3,3-dimethylbutanamido)-7-fluoro-2-hydroxy-3,4-dihydro-2H-benzo[e][1,2]oxaborinine-8-carboxylic acid], the MIC with N. gonorrhoeae WHO Q and in the assay on N. gonorrhoeae WHO Z was more than 64 µg/mL each time. Also, the EC50 in assay [1] was less than 10 µM. Further, on P. aeruginosa PBP3, the “P. aeruginosa PBP3 Potency” value is “D (D represents a potency <10 μM)”.
